Assay results: patent publication EP2197879B1, “C7-SUBSTITUTED CAMPTOTHECIN ANALOGS” (priority 2007, dated 2009)
Like-named read-outs stand apart in the source and are kept apart here.

How the values were obtained:
[1] = test system: A2780/WT (wild-type) cells; test: Sulforhodamine B (SRB) cytotoxicity assay in A2780/WT cells; assay type: cell-based
Method: (§1) Each of the testing conditions used in this study in both A2780/WT (wild-type) and A2780/DX5 cells were repeated in five to fifteen experiments that were performed on separate days. Each experiment consisted of one microtiter plate with at least eight individual assays of a given drug treatment condition on the plate. The sulforhodamine B (SRB) assay was used to assess cytotoxicity and absorbance at 570 nm (A570) in order to calculate the percentage of cell control (or percent cell survival) for the various treatment conditions in the plate wells.
(§2) Roswell Park Memorial Institute (RPMI 1640) medium, fetal bovine serum (FBS), and L-glutamine were purchased from Gibco BRL. Drugs were dissolved in sterile dimethylsulfoxide (DMSO), from American Type Culture Collection (ATCC) for stock solutions (2.5 to 5.0 mM). Subsequent dilutions were made using cell culture medium (prior to adding the drug to cells). SRB was purchased from Sigma and dissolved in 1.0 percent acetic acid. Trichloroacetic acid was purchased from VWR International.
(§3) Cells were manipulated in a Class IIA/B3 Biological Safety Cabinet (Forma Scientific) and maintained at 37°C in a humidified atmosphere containing 5% CO2 in a water-jacketed cell culture incubator (Forma Scientific). Cells were counted using a Coulter-Z1 counter (Beckman-Coulter). Following drug treatment, plates were washed using a Biomek 2000 station (Beckman) and, following exposure to SRB dye, plates were washed using an automated plate washer (Model EL404, Bio-Tek Instruments). Percentage of control was correlated to A570 values and determined using a Model EL800 plate reader (Bio-Tek Instruments).
(§4) Population doubling times for the two cell lines used in this study encompassed a total of five cell doublings corresponding to approximately 5 days for A2780/WT and A2780/DX5 cells. A2780/WT and A2780/DX5 cells were cultured in RPMI 1640 medium supplemented with 10% fetal bovine serum and 1 mM of L-glutamine. Both cell lines were maintained as monolayered cultures in T-25 or T-75 flasks and then seeded to microtiter plate wells for experiments described herein. Prior to SRB assays, cell viability was monitored by evaluation of microtiter plate wells. Dead cells detach and float while living cells remain attached to the bottom of the cell well.
(§5) The sulforhodamine B (SRB) cytotoxicity assay (see, Skehan P, et al., New colorimetric cytotoxicity assay for anticancer-drug screening. J. Natl. Cancer Inst. 82:1107-1112 (1990)) was used to determine the cytotoxic effects of BNP1350, SN-38, topotecan, 9-NH2-CPT, and 9-NO2-CPT on cell growth in vitro. Briefly, after the medium was aspirated from individual plate wells, trichloroacetic acid (100 µL of 10.0% solution) was added to each well, and the plates were incubated at 4°C for at least 1 hour. The plates were washed five-times with water using an automated microplate washer (Model EL 404, Bio-Tek Instruments), SRB solution (100 µL of 0.4 grams SRB dissolved in 100 mL 1.0 percent acetic acid) was added, and plates remained at room temperature for 15 minutes. The plates were then washed five-times using acetic acid (1.0%), air dried, and bound dye was solubilized in Tris base (150 µL, 10 mM). Plates were agitated (gently) for 5 minutes and the absorbance values of the SRB dye-protein adduct at a 570 nm wavelength (A570) were determined using an automated microtiter plate reader equipped with an A570 filter (Model EL800, BioTek Instruments). Table VII. Summary of Cytotoxicity Experiments in A2780/WT and DX5 Cells

A2780/DX5 cells = test: Sulforhodamine B (SRB) cytotoxicity assay in A2780/DX5 cells; assay type: cell-based; details: for IC50 Ratio: A2780/DX5 versus A2780/WT
Method: as §1, §2, §3, §4, §5

[2] = SRB assay, A2780/WT cells, read-out: A2780/ WT (IC50)
[3] = SRB assay, A2780/DX5 cells, read-out: A2780/ DX5 (IC50)
[4] = Homo sapiens, A2780, read-out: A2780/ WT (IC50)
[5] = Homo sapiens, A2780, read-out: A2780/ DX5 (IC50)
[6] = Homo sapiens, SRB assay, A2780/DX5 cells, read-out: A2780/ DX5 (IC50)
[7] = Homo sapiens, SRB assay, A2780/WT cells, read-out: A2780/ WT (IC50)

SMILES	IC50 [1, 2]	IC50 Ratio (A2780/DX5 cells)	IC50 (A2780/DX5 cells; [3])	IC50 [1, 4]	IC50 (A2780/DX5 cells; [5])	IC50 (A2780/DX5 cells; [6])	IC50 [1, 7]
CCC1(O)C(=O)OCc2c1cc1n(c2=O)Cc2c-1nc1ccccc1c2CC[Si](C)(C)CCC(=O)NC(CCC(=O)O)C(=O)O (stereo not drawn) [Compound 50, 2-(3-{[2-(4-Ethyl-4-hydroxy-3, 13-dioxo-3,4, 12, 13-tetrahydro-1H-2-oxa-6, 12a-diaza-dibenzo[b,h]fluoren-11-yl)-ethyl]-dimethyl-silanyl}-propionylamino)-pentanedioic add]	1.7 µM	1699.3	> 2 µM				
CC[C@@]1(O)C(=O)OCc2c1cc1n(c2=O)Cc2c-1nc1ccccc1c2CC[Si](C)(C)Cn1ccccc1=O [Compound 31, (4S)-11-{2-[dimethyl-(2-oxo-2H-pyridin-1-ylmethyl)-silanyl]-ethyl}-4-ethyl-4-hydroxy-1,12-dihydro-4H-2-oxa-6,12a-diaza-dibenzo[b,h]fluorene-3,13-dione]		8.1		0.0121 µM	0.0985 µM		
CC[C@@]1(O)C(=O)OCc2c1cc1n(c2=O)Cc2c-1nc1ccccc1c2CC[Si](C)(C)CCCn1ccccc1=O [Compound 17, (4S)-11-(2-{dimethyl-[3-(2-oxo-2H-pyridin-1-yl)-propyl]-silanyl}-ethyl)-4-ethyl-4-hydroxy-1,12-dihydro-4H-2-oxa-6,12a-diaza-dibenzo[b,h]fluorene-3,13-dione]		11.6		0.016 µM	0.186 µM		
CC[C@@]1(O)C(=O)OCc2c1cc1n(c2=O)Cc2c-1nc1ccccc1c2CC[Si](C)(C)CSC[C@H](NC(=O)OC(C)(C)C)C(=O)OC [Compound 8, (2R, 4S)-2-tert-butoxycarbonylamino-3-({[2-(4-ethyl-4-hydroxy-3,13-dioxo-3,4,12,13-tetrahydro-1H-2-oxa-6,12a-diaza-dibenzo[b,h]fluoren-11-yl)-ethyl]-dimethyl-silanyl}-methylsulfanyl)-propionic acid methyl ester]		2.77		0.0398 µM	0.11 µM		
CC[C@@]1(O)C(=O)OCc2c1cc1n(c2=O)Cc2c-1nc1ccccc1c2CC[Si](C)(C)CSC1=NCCS1 [Compound 34, (4S)-11-{2-[(4,5-dihydro-thiazol-2-ylsulfanylmethyl)-dimethylsilanyl]-ethyl}-4-ethyl-4-hydroxy-1,12-dihydro-4H-2-oxa-6,12a-diaza-dibenzo[b,h]fluorene-3,13-dione]		2.7		0.0203 µM		0.0555 µM	
CC[C@@]1(O)C(=O)OCc2c1cc1n(c2=O)Cc2c-1nc1ccccc1c2CC[Si](C)(C)CCCP(=O)(OC)OC [Compound 18, (4S)-(3-{[2-(4-ethyl-4-hydroxy-3,13-dioxo-3,4,12,13-tetrahydro-1H-2-oxa-6,12a-diaza-dibenzo[b,h]fluoren-11-yl)-ethyl]-dimethylsilanyl}-propyl)-phosphonic acid dimethyl ester]		11.7		0.0586 µM	0.687 µM		
CCC1(O)C(=O)OCc2c1cc1n(c2=O)Cc2c-1nc1ccccc1c2CC[Si](C)(C)CCCOC(=O)C1CCC1 (stereo not drawn) [Compound 62, Cyclobutanecarboxylic acid 3-{[2-(4-ethyl-4-hydroxy-3, 13-dioxo-3,4, 12, 13-tetrahvdro-1H-2-oxa-6,12a-diaza-dibenzo[b,h]fluoren-11-yl)-ethyl]-dimethyl-silanyl}-propyl ester]	0.0104 µM	3.77	0.0392 µM				
CCN(CC)C(=O)NC[Si](C)(C)CCc1c2c(nc3ccccc13)-c1cc3c(c(=O)n1C2)COC(=O)[C@]3(O)CC [Compound 43, (4S)-1,1-diethyl-3-({[2-(4-ethyl-4-hydroxy-3,13-dioxo-3,4,12,13-tetrahydro-1H-2-oxa-6,12a-diaza-dibenzo[b,h]fluoren-11-yl)-ethyl]-dimethylsilanyl} -methyl)-urea]		4.28		0.0689 µM	0.295 µM		
CCN(CC)C(=O)NCCC[Si](C)(C)CCc1c2c(nc3ccccc13)-c1cc3c(c(=O)n1C2)COC(=O)[C@]3(O)CC [Compound 27, (4S)-1,1-diethyl-3-(3-{[2-(4-ethyl-4-hydroxy-3,13-dioxo-3,4,12,13-tetrahydro-1H-2-oxa-6,12a-diaza-dibenzo[b,h]fluoren-11-yl)-ethyl]-dimethyl-silanyl}-propyl)-urea]		7.21		0.0652 µM	0.47 µM		
CC[C@@]1(O)C(=O)OCc2c1cc1n(c2=O)Cc2c-1nc1ccccc1c2CC[Si](C)(C)CI [Compound 4, 11-(4S)-[2-(iodomethyldimethylsilanyl)-ethyl]-4-ethyl-4-hydroxy-1,12-dihydro-4H-2-oxa-6,12a-diaza-dibenzo[b,h]fluorene-3,13-dione]		1.72		0.0157 µM	0.027 µM		
CC[C@@]1(O)C(=O)OCc2c1cc1n(c2=O)Cc2c-1nc1ccccc1c2CC[Si](C)(C)CCCS(=O)(=O)c1ccccc1 [Compound 13, (4S)-11-{2-[(3-benzenesulfonylaronyl)-dimethylsilanyl]-ethyl}-4-ethyl-4-hydroxy-1,12-dihydro-4H-2-oxa-6,12a-diaza-dibenzo[b,h]fluorene-3,13-dione]	0.0085 µM	6.3	0.0535 µM				
CC[C@@]1(O)C(=O)OCc2c1cc1n(c2=O)Cc2c-1nc1ccccc1c2CC[Si](C)(C)CNC(=O)N(C)C [Compound 45, (4S)-3-({[2-(4-ethyl-4-hydroxy-3, 13-dioxo-3,4, 12, 13-tetrahydro-1H-2-oxa-6,12a-diaza-dibenzo[b,h]fluoren-11-yl)-ethyl]-dimethylsilanyl}-methyl)-1,1-dimethyl-urea]		4.9				0.178 µM	0.0361 µM
CC[C@@]1(O)C(=O)OCc2c1cc1n(c2=O)Cc2c-1nc1ccccc1c2CC[Si](C)(C)CCCNC(=O)C(F)(F)F [Compound 23, (4S)-N-(3-{[2-(4-ethyl-4-hydroxy-3,13-dioxo-3,4,12,13-tetrahydro-1H-2-oxa-6,12a-diaza-dibenzo[b,h]fluoren-11-yl)-ethyl]-dimethyl-silanyl}-propyl)-2,2,2-trifiuoro-acetamide]	0.0169 µM	3.3	0.0558 µM				
CCC1(O)C(=O)OCc2c1cc1n(c2=O)Cc2c-1nc1ccccc1c2CC[Si](C)(C)CCC(=O)N(C)C (stereo not drawn) [Compound 48, 3-{[2-(4-Ethyl-4-hydroxy-3,13-dioxo-3,4,12,13-tetrahydro-1H-2-oxa-6,12a-diaza-dibenzo[b,h]fluoren-11-yl)-ethyl]-dimethyl-silanyl}-N,N-dimethyl-propionamide]		3.9				0.164 µM	0.0423 µM
CC[C@@]1(O)C(=O)OCc2c1cc1n(c2=O)Cc2c-1nc1ccccc1c2CC[Si](C)(C)CCCN(C)C [Compound 16, (4S)-11-{2-[(3-dimethylaminopropyl)-dimethysilanyl]-ethyl}-4-ethyl-4-hydroxyl-1,12-dihydro-4H-2-oxa-6,12a-diaza-dibenzo[b,h]fluorene-3,13-dione]	0.0236 µM	21.7	0.512 µM				
CC[C@@]1(O)C(=O)OCc2c1cc1n(c2=O)Cc2c-1nc1ccccc1c2CC[Si](C)(C)CCCNC(=O)Nc1ccccc1 [Compound 25, (4S)-1-(3-{[2-(4-ethyl-4-hydroxy-3,13-dioxo-3,14,12,13-tetrahydro-1H-2-oxa-6,12a-diaza-dibenzo[b,h]fluoren-11-yl)-ethyl]-dimethylsilanyl}-propyl)-3-phenylurea]	0.0234 µM	6.5	0.152 µM				
